In US10544130B2, “Metallo-beta-lactamase inhibitors” (priority 2015, dated 2020):

How the values were obtained:
[1] = tested on: Pseudomonas aeruginosa PAO1 MB9798 (efflux+, IMP-1); conditions: ratio MITC95 PA 9798/MITC95 PA 9799; imipenem at 2 μg/mL
Outline: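 Isogenic PAO1 pair (efflux+ MB9798, efflux− MB9799, both IMP-1) tested by microbroth MIC with fixed imipenem and/or ceftazidime, usually at CLSI breakpoint, plus fixed class A/C inhibitor against AmpC. MBL inhibitor titrated; concentration restoring susceptibility recorded and fold difference between strains taken as efflux extent.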

[2] = tested on: Klebsiella pneumoniae expressing VIM-1 (IHMA599644); type: cell-based; conditions: with imipenem 1 μg/ml; 95% inhibition of bacterial growth
Outline: (§1)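 Clinical strains were grown overnight at 35 °C on blood agar, adjusted to set OD600 in saline and diluted 1:100 into 1.1× CAMHB. Inhibitor was tested with and without imipenem at 1 μg/ml. After 22–24 h at 35 °C, absorbance was read to give synergistic concentration.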

[3] = tested on: Serratia marcescens expressing IMP-1 (CL5741); type: cell-based; conditions: with imipenem 1 μg/ml; 95% inhibition of bacterial growth
Outline: as §1

[4] = tested on: Escherichia coli expressing NDM-1 (CLB30005, CLB30016); type: cell-based; conditions: with imipenem 1 μg/ml; 95% inhibition of bacterial growth
Outline: as §1

Row | Structure (SMILES) | Efflux ratio [1] | Klebsiella pneumoniae (VIM-1) MITC95 [2] [µM] | Serratia marcescens (IMP-1) MITC95 [3] [µM] | Escherichia coli (NDM-1) MITC95 [4] [µM]
1 | Nc1nc(-c2cccc(-c3ccc(S(=O)(=O)N[C@H]4CCNC4)c(S(N)(=O)=O)c3-c3nn[nH]n3)c2)c[nH]1 [Example 294, (S)-3′-(2-amino-1H-imidazol-4-yl)-N4-(pyrrolidin-3-yl)-2-(2H-tetrazol-5-yl)-[1,1′-biphenyl]-3,4-disulfonamide] | 2.00 | 1.563 |  | 
2 | NC[C@H](O)CNS(=O)(=O)c1ccc(-c2cccc3[nH]c(N)nc23)c(-c2nn[nH]n2)c1S(N)(=O)=O [Example 304, (S)-4-(2-amino-1H-benzo[d]imidazol-4-yl)-N1-(3-amino-2-hydroxypropyl)-3-(2H-tetrazol-5-yl)-benzene-1,2-disulfonamide] | 0.50 |  | 0.7813 | 0.3906
3 | NCc1nc2c(-c3ccc(S(=O)(=O)NC[C@@H](O)CN)c(S(N)(=O)=O)c3-c3nn[nH]n3)cccc2s1 [Example 306, (S)—N1-(3-amino-2-hydroxypropyl)-4-(2-(aminomethyl)benzo[d]thiazol-4-yl)-(2H-tetrazol-5-yl)benzene-1,2-disulfonamide] | 1.00 |  | 0.7813 | 0.7813
4 | Nc1nc2c(-c3ccc(S(=O)(=O)NC[C@@H]4CNCCN4)c(S(N)(=O)=O)c3-c3nn[nH]n3)cccc2[nH]1 [Example 310, (S)-4-(2-amino-1H-benzo[d]imidazol-4-yl)-N1-(piperazin-2-ylmethyl)-3-(2H-tetrazol-5-yl)benzene-1,2-disulfonamide] | 1.00 |  | 0.7813 | 0.7813
5 | Nc1ncccc1-c1ccc(S(=O)(=O)NC[C@@H]2CNCCN2)c(S(N)(=O)=O)c1-c1nn[nH]n1 [Example 313, (S)-4-(2-aminopyridin-3-yl)-N1-(piperazin-2-ylmethyl)-3-(2H-tetrazol-5-yl)benzene-1,2-disulfonamide] | 2.00 | 3.125 |  | 
6 | N[C@H]1CNC[C@H]1NS(=O)(=O)c1ccc(-c2cnc3cc[nH]c3c2)c(-c2nn[nH]n2)c1S(N)(=O)=O [Example 320] | 2.00 |  | 0.7813 | 0.7813
7 | Nc1ncc(-c2ccc(S(=O)(=O)N[C@@H]3CNC[C@@H]3N)c(S(N)(=O)=O)c2-c2nn[nH]n2)s1 [Example 321, N^1-((3R,4S)-4-aminopyrrolidin-3-yl)-4-(2-aminothiazol-5-yl)-3-(2H-tetrazol-5-yl)benzene-1,2-disulfonamide] | 2.00 |  | 1.563 | 0.7813
8 | Nc1ncc(-c2ccc(S(=O)(=O)N[C@H]3CNC[C@H]3N)c(S(N)(=O)=O)c2-c2nn[nH]n2)s1 [Example 325, N1-((3S,4R)-4-aminopyrrolidin-3-yl)-4-(2-aminothiazol-5-yl)-3-(2H-tetrazol-5-yl)benzene-1,2-disulfonamide] | 2.00 |  | 1.563 | 0.7813
9 | Nc1nc(-c2cccc(-c3ccc(S(=O)(=O)N[C@H]4CNC[C@H]4N)c(S(N)(=O)=O)c3-c3nn[nH]n3)c2)c[nH]1 [Example 327, 3′-(2-amino-1H-imidazol-4-yl)-N4-((3S,4R)-4-aminopyrrolidin-3-yl)-2-(2H-tetrazol-5-yl)[1,1′-biphenyl]-3,4-disulfonamide] | 2.00 | 1.563 |  | 
10 | NCCCNC(=O)c1cccc(-c2ccc(S(=O)(=O)NCCN)c(S(N)(=O)=O)c2-c2nn[nH]n2)c1 [Example 341, 4′-(N-(2-aminoethyl)sulfamoyl)-N-(3-aminopropyl)-3′-sulfamoyl-2′-(2H-tetrazol-5-yl)-[1,1′-biphenyl]-3-carboxamide] | 2.00 |  | 1.563 | 0.7813
11 | NCCNS(=O)(=O)c1ccc(-c2cccc(SCC(N)CO)c2)c(-c2nn[nH]n2)c1S(N)(=O)=O (stereo not drawn) [Example 354, 3′-((2-amino-3-hydroxypropyl)thio)-N4-(2-aminoethyl)-2-(2H-tetrazol-5-yl)-[1,1′-biphenyl]-3,4-disulfonamide] | 4.00 |  | 1.563 | 0.3906
12 | NCCNS(=O)(=O)c1ccc(-c2cccnc2N)c(-c2nn[nH]n2)c1S(N)(=O)=O [Example 358, N1-(2-aminoethyl)-4-(2-aminopyridin-3-yl)-3-(2H-tetrazol-5-yl)benzene-1,2-disulfonamide] | 2.00 | 1.563 |  | 
13 | NC[C@H](CO)NS(=O)(=O)c1ccc(-c2cccc(N)n2)c(-c2nn[nH]n2)c1S(N)(=O)=O [Example 364, (R)—N^1-(1-amino-3-hydroxypropan-2-yl)-4-(6-aminopyridin-2-yl)-3-(2H-tetrazol-5-yl)benzene-1,2-disulfonamide] | 2.00 |  | 3.125 | 3.125
14 | Nc1nc2c(-c3ccc(S(=O)(=O)NC[C@]4(N)CCNC4)c(S(N)(=O)=O)c3-c3nn[nH]n3)cccc2s1 [Example 366, (S)-4-(2-aminobenzo[d]thiazol-4-yl)-N^1-((3-aminopyrrolidin-3-yl)methyl)-3-(2H-tetrazol-5-yl)benzene-1,2-disulfonamide] | 1.00 |  | 1.563 | 0.7813
15 | NC[C@H](N)CNS(=O)(=O)c1ccc(-c2cnc(N)s2)c(-c2nn[nH]n2)c1S(N)(=O)=O [Example 372, (S)-4-(2-aminothiazol-5-yl)-N1-(2,3-diaminopropyl)-3-(2H-tetrazol-5-yl)benzene-1,2-disulfonamide] | 2.00 |  | 1.563 | 1.563
16 | NC[C@@H](N)CNS(=O)(=O)c1ccc(-c2cnc(N)s2)c(-c2nn[nH]n2)c1S(N)(=O)=O [Example 377, (R)-4-(2-aminothiazol-5-yl)-N1-(2,3-diaminopropyl)-3-(2H-tetrazol-5-yl)benzene-1,2-disulfonamide] | 2.00 |  | 1.563 | 0.7813
17 | NCc1nc2c(-c3ccc(S(=O)(=O)N[C@@H](CN)CO)c(S(N)(=O)=O)c3-c3nn[nH]n3)cccc2s1 [Example 381, (S)—N1-(1-amino-3-hydroxypropan-2-yl)-4-(2-(aminomethyl)benzo[d]thiazol-4-yl)-3-(2H-tetrazol-5-yl)benzene-1,2-disulfonamide] | 1.50 |  | 1.172 | 0.7813
18 | NCc1nc2c(-c3ccc(S(=O)(=O)NC(CN)CN)c(S(N)(=O)=O)c3-c3nn[nH]n3)cccc2[nH]1 [Example 385, 4-(2-(Aminomethyl)-1H-benzo[d]imidazol-4-yl)-N1-(1,3-diaminopropan-2-yl)-3-(2H-tetrazol-5-yl)benzene-1,2-disulfonamide] | 1.00 |  | 0.7813 | 0.7813
19 | NCCNS(=O)(=O)c1ccc(-c2ccnc(N)c2)c(-c2nn[nH]n2)c1S(N)(=O)=O [Example 400, N^1-(2-aminoethyl)-4-(2-aminopyridin-4-yl)-3-(2H-tetrazol-5-yl)benzene-1,2-disulfonamide] |  | 1.563 |  | 
20 | NCC(CN)NS(=O)(=O)c1ccc(-c2ccc(N)nc2)c(-c2nn[nH]n2)c1S(N)(=O)=O [Example 404, 4-(6-aminopyridin-3-yl)-N^1-(1,3-diaminopropan-2-yl)-3-(2H-tetrazol-5-yl)benzene-1,2-disulfonamide] |  | 1.172 |  | 
21 | NCC(CN)NS(=O)(=O)c1ccc(-c2ccnc(N)c2)c(-c2nn[nH]n2)c1S(N)(=O)=O [Example 405, 4-(2-aminopyridin-4-yl)-N^1-(1,3-diaminopropan-2-yl)-3-(2H-tetrazol-5-yl)benzene-1,2-disulfonamide] |  | 25 |  | 
22 | NC[C@H](N)CNS(=O)(=O)c1ccc(-c2ccc(N)nc2)c(-c2nn[nH]n2)c1S(N)(=O)=O [Example 415, (S)-4-(6-aminopyridin-3-yl)-N^1-(2,3-diaminopropyl)-3-(2H-tetrazol-5-yl)benzene-1,2-disulfonamide] |  | 3.125 |  | 
23 | NCCNS(=O)(=O)c1ccc(-c2ccccc2NC(=O)CN)c(-c2nn[nH]n2)c1S(N)(=O)=O [Example 452, 2-Amino-N-(4′-(N-(2-aminoethyl)sulfamoyl)-3′-sulfamoyl-2′-(2H-tetrazol-5-yl)-[1,1′-biphenyl]-2-yl)acetamide] |  | 6.25 |  | 
24 | NC(=O)c1csc(Nc2cccc(-c3ccc(S(=O)(=O)N[C@@H]4CCNC4)c(S(N)(=O)=O)c3-c3nn[nH]n3)c2)n1 [Example 471, (R)-2-((4′-(N-(pyrrolidin-3-yl)sulfamoyl)-3′-sulfamoyl-2′-(2H-tetrazol-5-yl)-[1,1′-biphenyl]-3-yl)amino)thiazole-4-carboxamide] |  | 3.125 |  | 
25 | Nc1ccc(-c2ccc(S(=O)(=O)NC[C@@H]3CCCN3)c(S(N)(=O)=O)c2-c2nn[nH]n2)cn1 [Example 488, (S)-4-(6-aminopyridin-3-yl)-N1-(pyrrolidin-2-ylmethyl)-3-(2H-tetrazol-5-yl)benzene-1,2-disulfonamide] |  | 1.563 |  | 
